Reference: patent US12281363B2, “Methods for detecting antiviral-drug resistant virus” (Secretary of State for Health and Social Care, priority 2018, dated 2025)
Read-outs that look alike come from different tables or passages of the source.

System: HSV-1
Assay: Plaque reduction assay, HSV-1 clinical isolates on Vero cells
Format: cell-based
Conditions: Human alphaherpesvirus 1, Vero
Excerpt: Viral isolates were used to infect a sub-confluent monolayer of Vero cells at a concentration of 75 or 50 plaque forming units (PFU) per well for HSV-1 and HSV-2, respectively. […] CMC medium typically used to create a semisolid interface and prevents indiscrimate viral spreading. Other materials (e.g. agar) may also be used to create this interface.
Cells were fixed with 10% formalin and stained with crystal violet before enumeration of the plaques (microscopic observation or use of fluorescent antibodies for detection is also suitable). The data obtained from these experiments were then expressed as percent inhibition of viral infectivity relative to the no drug control.
Definitions of phenotypic drug susceptibility classification as sensitive or resistant were as follows: ACV, <3 μM or >40 μM; PCV, <10 μM or >40 μM; CDV, <24 μM or >30 μM; FOS, <250 μM or >400 μM; and ACV, <6.5 μM or >40 μM; PCV, <38 μM or >40 μM; FOS, <250 μM or >400 μM for HSV-1 and HSV-2, respectively. Any IC50 values falling in between these sensitive and resistant cut-offs were reported as intermediate resistance.
The phenotype (i.e. reactivity to a drug) of the virus was characterised by the plaque reduction assay as described above.

In the case of Nc1nc2c(ncn2COCCO)c(=O)[nH]1 [Aciclovir, acyclovir], the IC50 (read-out: Drug susceptibility Aciclovir (ACV), isolate HPG002, HSV-1 pol E992K (2974G>A), also TK insert (G) nt 430-436, pol A1169T) is reported as 3 to 40 µM, the IC50 (read-out: Drug susceptibility Aciclovir (ACV), isolate HPG003, HSV-1 TK Y172S (515A>C)) is reported as 3 to 40 µM and the IC50 (read-out: Drug susceptibility Aciclovir (ACV), isolate HPG005, HSV-1 TK A37V (110C>T)) is reported as < 3 µM. For the same compound, the IC50 (read-out: Drug susceptibility Aciclovir (ACV), isolate HPG005, HSV-1 TK A192T (574G>A)) was < 3 µM, the IC50 (read-out: Drug susceptibility Aciclovir (ACV), isolate HPG006, HSV-1 pol G121S (361G>A), also a TK resistance mutation (footnote a)) was > 40 µM and the IC50 (read-out: Drug susceptibility Aciclovir (ACV), isolate HPG008, HSV-1 TK V204G (611T>G)) was 3 to 40 µM. For the same compound, the IC50 (read-out: Drug susceptibility Aciclovir (ACV), isolate HPG009, HSV-1 pol E992K (2974G>A), also pol A1169T) was < 3 µM, the IC50 (read-out: Drug susceptibility Aciclovir (ACV), isolate HPG010, HSV-1 TK Q125* (373C>T)) was 3 to 40 µM and the IC50 (read-out: Drug susceptibility Aciclovir (ACV), isolate HPG011, HSV-1 TK Q125* (373C>T)) was 3 to 40 µM. The IC50 (read-out: Drug susceptibility Aciclovir (ACV), isolate HPG012, HSV-1 pol G985E (2954G>A), also TK A93V) was > 40 µM, the IC50 (read-out: Drug susceptibility Aciclovir (ACV), isolate HPG013, HSV-1 TK M121I (363G>A)) was 3 to 40 µM and the IC50 (read-out: Drug susceptibility Aciclovir (ACV), isolate HPG013, HSV-1 pol D83A (248A>C), also TK M121I, pol A1169T) was 3 to 40 µM. For the same compound, the IC50 (read-out: Drug susceptibility Aciclovir (ACV), isolate HPG014, HSV-1 pol A1115T (3343G>A)) was < 3 µM, the IC50 (read-out: Drug susceptibility Aciclovir (ACV), isolate HPG014, HSV-1 pol R993C (2977C>T)) was < 3 µM and the IC50 (read-out: Drug susceptibility Aciclovir (ACV), isolate HPG014, HSV-1 pol T54A (160A>G)) was < 3 µM. For the same compound, the IC50 (read-out: Drug susceptibility Aciclovir (ACV), isolate HPG015, HSV-1 pol 966stop or F965_I966insF (2892_2893insT to 2895_2896insT)) was < 3 µM, the IC50 (read-out: Drug susceptibility Aciclovir (ACV), isolate HPG016, HSV-1 pol A1169T (3505G>A)) was < 3 µM and the IC50 (read-out: Drug susceptibility Aciclovir (ACV), isolate HPG018, HSV-1 TK frameshift (881delC to 885delC)) was 3 to 40 µM. For the same compound, the IC50 (read-out: Drug susceptibility Aciclovir (ACV), isolate HPG018, HSV-1 pol P1199T (3595C>A), also TK deletion (C) nt 881-885, pol A1169T) was 3 to 40 µM, the IC50 (read-out: Drug susceptibility Aciclovir (ACV), isolate HPG019, HSV-1 pol K750T (2249A>C), also TK deletion (G) nt 430-436, pol A1169T) was > 40 µM and the IC50 (read-out: Drug susceptibility Aciclovir (ACV), isolate HPG020, HSV-1 pol S911N (2732G>A), also pol A1169T) was < 3 µM. For the same compound, the IC50 (read-out: Drug susceptibility Aciclovir (ACV), isolate HPG021, HSV-1 pol R681Q (2042G>A), also TK deletion (G) nt 430-436) was > 40 µM, the IC50 (read-out: Drug susceptibility Aciclovir (ACV), isolate HPG021, HSV-1 pol T839A (2515A>G), also TK deletion (G) nt 430-436) was > 40 µM and the IC50 (read-out: Drug susceptibility Aciclovir (ACV), isolate HPG025, HSV-1 pol E850Q (2548G>C), also TK R216C) was 3 to 40 µM. For the same compound, the IC50 (read-out: Drug susceptibility Aciclovir (ACV), isolate HPG026, HSV-1 pol E850Q (2548G>C), also TK R216C, pol A1169T) was 3 to 40 µM, the IC50 (read-out: Drug susceptibility Aciclovir (ACV), isolate HPG027, HSV-1 TK V204G (611T>G), also pol S914L, A1169AT) was > 40 µM and the IC50 (read-out: Drug susceptibility Aciclovir (ACV), isolate HPG027, HSV-1 pol S914L (2741C>T), also TK V204G, pol A1169T) was > 40 µM. For the same compound, the IC50 (read-out: Drug susceptibility Aciclovir (ACV), isolate HPG029, HSV-1 TK Y172S (515A>C)) was > 40 µM, the IC50 (read-out: Drug susceptibility Aciclovir (ACV), isolate HPG031, HSV-1 pol E1120A (3359A>C), also a TK resistance mutation (footnote e)) was 3 to 40 µM and the IC50 (read-out: Drug susceptibility Aciclovir (ACV), isolate HPG031, HSV-1 pol G139R (415G>C or 415G>A), also a TK resistance mutation (footnote e)) was 3 to 40 µM. It also gave an IC50 (read-out: Drug susceptibility Aciclovir (ACV), isolate HPG032, HSV-1 TK 183* (437_438insA)) of 3 to 40 µM, an IC50 (read-out: Drug susceptibility Aciclovir (ACV), isolate HPG033, HSV-1 TK I358L (1072A>C), also TK T287M) of 3 to 40 µM and an IC50 (read-out: Drug susceptibility Aciclovir (ACV), isolate HPG033, HSV-1 pol N1046T (3137A>C), also TK T287M, pol A1169T) of 3 to 40 µM. For the same compound, the IC50 (read-out: Drug susceptibility Aciclovir (ACV), isolate HPG035, HSV-1 pol S239L (716C>T), also pol S724N) was 3 to 40 µM, the IC50 (read-out: Drug susceptibility Aciclovir (ACV), isolate HPG037, HSV-1 TK L69M (205>A), also TK Y239H) was 3 to 40 µM and the IC50 (read-out: Drug susceptibility Aciclovir (ACV), isolate HPG037, HSV-1 TK R256W (766C>T)) was 3 to 40 µM. The IC50 (read-out: Drug susceptibility Aciclovir (ACV), isolate HPG037, HSV-1 TK Y239H (715T>C)) was 3 to 40 µM, the IC50 (read-out: Drug susceptibility Aciclovir (ACV), isolate HPG039, HSV-1 TK 85* or H58fs (169delC, 170delC, 171delC, or 172delC)) was 3 to 40 µM and the IC50 (read-out: Drug susceptibility Aciclovir (ACV), isolate HPG040, HSV-1 pol S911N (2732G>A), also TK deletion (C) nt 896-900, pol A1169T) was > 40 µM. The IC50 (read-out: Drug susceptibility Aciclovir (ACV), isolate HPG041, HSV-1 pol S911N (2732G>A), also pol A1169T) was < 3 µM, the IC50 (read-out: Drug susceptibility Aciclovir (ACV), isolate HPG042, HSV-1 TK frameshift (881delC to 885delC)) was 3 to 40 µM and the IC50 (read-out: Drug susceptibility Aciclovir (ACV), isolate HPG042, HSV-1 pol A972V (2915C>T), also TK deletion (C) nt 881-885, pol A1169T) was > 40 µM. For the same compound, the IC50 (read-out: Drug susceptibility Aciclovir (ACV), isolate HPG042, HSV-1 pol G22R (64G>A), also TK deletion (C) nt 881-885, pol A1169T) was > 40 µM, the IC50 (read-out: Drug susceptibility Aciclovir (ACV), isolate HPG043, HSV-1 TK 183* (437_438insA)) was 3 to 40 µM and the IC50 (read-out: Drug susceptibility Aciclovir (ACV), isolate HPG045, HSV-1 TK L49R (146T>G)) was 3 to 40 µM. The IC50 (read-out: Drug susceptibility Aciclovir (ACV), isolate HPG045, HSV-1 pol L419I (1255C>A), also TK L49R, pol A1169T) was 3 to 40 µM, the IC50 (read-out: Drug susceptibility Aciclovir (ACV), isolate HPG046, HSV-1 TK I166N (497T>A)) was 3 to 40 µM and the IC50 (read-out: Drug susceptibility Aciclovir (ACV), isolate HPG047, HSV-1 pol E680 (2039A>C), also TK deletion (C) nt 548-553, pol A1169T) was 3 to 40 µM. The IC50 (read-out: Drug susceptibility Aciclovir (ACV), isolate HPG050, HSV-1 TK Q34* (100C>T)) was > 40 µM, the IC50 (read-out: Drug susceptibility Aciclovir (ACV), isolate HPG051, HSV-1 pol D83A (248A>C), also TK R176stop) was 3 to 40 µM and the IC50 (read-out: Drug susceptibility Aciclovir (ACV), isolate HPG052, HSV-1 TK Q34* (100C>T)) was 3 to 40 µM. For the same compound, the IC50 (read-out: Drug susceptibility Aciclovir (ACV), isolate HPG053, HSV-1 pol L802R + A834S (2405T>G, 2500G>T), also TK R176W) was > 40 µM, the IC50 (read-out: Drug susceptibility Aciclovir (ACV), isolate HPG053, HSV-1 pol S911N (2732G>A), also TK R176W, pol A1169T) was > 40 µM and the IC50 (read-out: Drug susceptibility Aciclovir (ACV), isolate HPG054, HSV-1 pol E992K (2974G>A), also TK insert (G) nt 430-436, pol A1169T) was 3 to 40 µM. The IC50 (read-out: Drug susceptibility Aciclovir (ACV), isolate HPG055, HSV-1 TK V204G (611T>G), also pol A1169AT) was 3 to 40 µM.
